According to patent publication US20080221134A1, “8-ALKYNYLXANTHINES AND DERIVATIVES” (priority 2006, published 2008):

Columns and labels:
[1] = target: T1, A2A-adenosine receptor human recombinant (Homo sapiens, UniProt P29274); assay: Radioligand binding assay 1, human recombinant A2A adenosine receptor; details: human recombinant, [3H]MSX-2; read-out: A2A-adenosine receptor human recombinant [3H] MSX-2 Ki
T1 construct: expressed in transfected cells
Protocol: (§1) Rat brain preparations were used for A1- and A2A adenosine receptor (AR) and human recombinant cell samples for A1-, A2A- and A3 adenosine receptor radioligand binding studies. Affinity and selectivity was tested in displacement experiments with following radioligands: [^3H]CCPA for A1-adenosine receptors, [^3H]MSX-2 for A2A-receptors and [^3H]PSB-11 for A3-receptors. Results of these experiments are depicted in table 2b (human data) and table 2a (rat data). Radioligand binding test systems are e.g. generally described by Muller et al., Curr. Pharm. Des., 1996, 2, 501 and Weyler et al., ChemMedChem 2006, 1, 891 and references cited therein) These documents are incorporated herein by reference.

[2] = target: T2, Rat A1 AR (Rattus norvegicus, UniProt P25099); assay: Radioligand binding assay 1, rat A1 adenosine receptor; details: rat cortex, [3H]CCPA
T2 construct: Rat brain preparations were used for A1- and A2A adenosine receptor (AR); from tissue; host or cells: rat cortex
T2 sequence (P25099 1-326): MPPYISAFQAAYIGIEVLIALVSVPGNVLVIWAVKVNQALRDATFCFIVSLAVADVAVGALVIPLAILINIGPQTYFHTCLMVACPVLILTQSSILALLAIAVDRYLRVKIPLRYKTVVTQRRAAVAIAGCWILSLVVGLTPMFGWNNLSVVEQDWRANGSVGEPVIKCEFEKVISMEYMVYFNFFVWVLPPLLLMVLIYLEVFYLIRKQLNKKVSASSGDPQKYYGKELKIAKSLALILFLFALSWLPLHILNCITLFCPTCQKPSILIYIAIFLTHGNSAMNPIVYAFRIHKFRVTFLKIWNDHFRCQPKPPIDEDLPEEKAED
Protocol: as §1

[3] = target: T3, Rat A2A AR (Rattus norvegicus, UniProt P30543); assay: Radioligand binding assay 1, rat A2A adenosine receptor; details: rat striatum, [3H]MSX-2
T3 construct: A2A adenosine receptors from rat striatum; from tissue; host or cells: rat striatum
T3 sequence (P30543 whole entry): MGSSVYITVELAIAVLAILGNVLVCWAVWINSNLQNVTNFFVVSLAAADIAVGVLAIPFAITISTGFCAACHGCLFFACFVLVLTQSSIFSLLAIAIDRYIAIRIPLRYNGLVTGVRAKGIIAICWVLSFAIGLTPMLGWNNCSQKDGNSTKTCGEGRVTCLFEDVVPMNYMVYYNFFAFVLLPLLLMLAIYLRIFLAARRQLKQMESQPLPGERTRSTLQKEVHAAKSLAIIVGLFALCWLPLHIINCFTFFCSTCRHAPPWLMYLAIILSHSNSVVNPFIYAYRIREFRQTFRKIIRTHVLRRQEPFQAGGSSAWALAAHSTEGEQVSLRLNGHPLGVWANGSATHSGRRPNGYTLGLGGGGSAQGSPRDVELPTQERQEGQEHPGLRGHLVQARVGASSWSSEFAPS
Protocol: as §1

T1 sequence (P29274 whole entry): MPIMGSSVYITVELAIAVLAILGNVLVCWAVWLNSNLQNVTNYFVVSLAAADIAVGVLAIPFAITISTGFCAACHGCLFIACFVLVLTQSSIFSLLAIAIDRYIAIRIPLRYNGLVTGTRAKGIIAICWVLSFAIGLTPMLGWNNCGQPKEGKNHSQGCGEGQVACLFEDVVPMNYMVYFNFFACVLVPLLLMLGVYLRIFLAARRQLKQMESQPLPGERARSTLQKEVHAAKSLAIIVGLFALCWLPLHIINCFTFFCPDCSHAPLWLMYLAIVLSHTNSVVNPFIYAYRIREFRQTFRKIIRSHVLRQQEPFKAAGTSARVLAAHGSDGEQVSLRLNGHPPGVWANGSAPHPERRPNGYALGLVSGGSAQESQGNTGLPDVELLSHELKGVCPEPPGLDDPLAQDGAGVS

Row | Ki [1] | Ki [2] | Ki [3] | Structure (SMILES)
1 | 50.7 ± 21.2 nM |  |  | C#CCn1c(=O)c2c(nc(C#Cc3ccc(OC)c(OC)c3)n2C)n(CCCOP(=O)(O)O)c1=O [drawing 570]
2 |  | ≥ 10000 nM | 117 ± 25 nM | C#CCn1c(=O)c2c(nc(C#Cc3cccc(OCCO)c3)n2C)n(C)c1=O [drawing 469]
3 |  | 286 ± 11 nM | 36.5 ± 6.1 nM | C#CCn1c(=O)c2c(nc(C#Cc3ccc(OC)c(OC)c3)n2C)n(CC(=O)OC)c1=O [drawing 546]
4 |  | > 1000 nM | 43.1 ± 13.2 nM | C#CCn1c(=O)c2c(nc(C#Cc3ccc(F)c(OC)c3)n2C)n(CC)c1=O [drawing 519]
5 |  | > 1000 nM | 18.5 ± 5 nM | C#CCn1c(=O)c2c(nc(C#Cc3ccc(OC)c(OC)c3)n2C)n(CC(C)=O)c1=O [drawing 525]
6 |  | 208 ± 54 nM | 90.9 ± 7 nM | CCn1c(=O)n(Cc2ccco2)c(=O)c2c1nc(C#Cc1ccc(OC)c(OC)c1)n2C
7 |  | > 3000 nM | 47.2 ± 7.3 nM | C#CCn1c(=O)c2c(nc(C#Cc3ccc(OC)c(OC)c3)n2C)n(CC)c1=O [drawing 487]
8 |  | > 1000 nM | 28 ± 4.2 nM | C#CCn1c(=O)c2c(nc(C#Cc3ccc(OC)c(OC)c3)n2C)n(Cc2ccsc2)c1=O
9 |  | > 1000 nM | 132 ± 96 nM | C#CCn1c(=O)c2c(nc(C#Cc3ccc(Cl)c(Cl)c3)n2C)n(CC)c1=O [drawing 550]
10 |  | > 10000 nM | 43.4 ± 11.6 nM | C#CCn1c(=O)c2c(nc(C#Cc3cccc(C)c3)n2C)n(C)c1=O [drawing 460]
11 |  | > 1000 nM | 22.9 ± 7.6 nM | C#CCn1c(=O)c2c(nc(C#Cc3ccc(OC)c(OC)c3)n2C)n(CCCC#N)c1=O [drawing 508]
12 |  | 1170 ± 731 nM | 140 ± 12 nM | C#CCn1c(=O)c2c(nc(C#Cc3cccc(OC(C)=O)c3)n2C)n(C)c1=O [drawing 472]
13 |  | ≥ 1000 nM | 120 ± 18 nM | C#CCn1c(=O)c2c(nc(C#Cc3cccc(OC)c3)n2C)n(CCC2OCCO2)c1=O
14 | 165 ± 14 nM |  |  | C#CCn1c(=O)c2c(nc(C#Cc3cccc(OC)c3)n2C)n(CCO)c1=O [drawing 572]
15 |  | ≥ 1000 nM | 118 ± 19 nM | C#CCn1c(=O)c2c(nc(C#Cc3ccc(OC)c(OC)c3)n2C)n(C(C)C)c1=O [drawing 516]
16 |  | > 1000 nM | 45.5 ± 10.4 nM | C#CCn1c(=O)c2c(nc(C#Cc3ccc(OC)c(OC)c3)n2C)n(CCO)c1=O [drawing 499]
17 |  | > 1000 nM | 28.6 ± 9.7 nM | C#CCn1c(=O)c2c(nc(C#Cc3ccc(OC)c(OC)c3)n2C)n(CC(=C)C)c1=O
18 |  | > 1000 nM | 28.6 ± 13.3 nM | C#CCn1c(=O)c2c(nc(C#Cc3ccc(OC)cc3)n2C)n(CC)c1=O
19 |  | > 1000 nM | 10.2 ± 4.2 nM | C#CCn1c(=O)c2c(nc(C#Cc3ccc(OC)c(OC)c3)n2C)n(CC2CC2)c1=O [drawing 521]
20 |  | ≥ 1000 nM | 52.6 ± 19.5 nM | C#CCn1c(=O)c2c(nc(C#Cc3ccc(OC)c(F)c3)n2C)n(CC)c1=O
21 |  | 186 ± 3 nM | 40 ± 1 nM | C#CCn1c(=O)c2c(nc(C#Cc3cccc(OCCCN(C)C)c3)n2C)n(C)c1=O [drawing 470]
22 | 89.7 ± 16.1 nM |  |  | C#CCn1c(=O)c2c(nc(C#Cc3ccc(OC)c(OC)c3)n2C)n(C)c1=O [drawing 601]
23 |  | > 1000 nM | > 1000 nM | C#Cn1c(=O)c2c(nc(C#Cc3ccc(Cl)c(Cl)c3)n2C)n(C)c1=O
24 |  | > 1000 nM | 108 ± 31 nM | C#CCn1c(=O)c2c(nc(C#Cc3ccsc3)n2C)n(CC)c1=O [drawing 510]
25 |  | > 1000 nM | 40 ± 0.6 nM | C#CCn1c(=O)c2c(nc(C#Cc3ccc(OC)c(OC)c3)n2C)n(CC#N)c1=O [drawing 500]
26 |  | > 10000 nM | 49.9 ± 9.7 nM | C#CCn1c(=O)c2c(nc(C#Cc3cccc(OC)c3)n2C)n(CC)c1=O [drawing 485]
27 |  | > 10000 nM | 80.7 ± 21.1 nM | C#CCn1c(=O)c2c(nc(C#Cc3cccc(OC)c3)n2C)n(CC#C)c1=O
28 |  | ≥ 10000 nM | 152 ± 63 nM | C#CCn1c(=O)c2c(nc(C#Cc3cccc(OCC=C)c3)n2C)n(C)c1=O
29 |  | > 1000 nM | 45.9 ± 13.5 nM | C#CCn1c(=O)c2c(nc(C#Cc3ccc(OC)c(OC)c3)n2C)n(CCOC)c1=O [drawing 498]
30 |  | 136 ± 19 nM | 37 ± 11 nM | C#CCn1c(=O)c2c(nc(C#Cc3ccc(OC)c(OC)c3)n2C)n(CCCOP(=O)(O)O)c1=O [drawing 494]
